Source: the supplement of paper PMC11919725

Experiments:
Jurkat [1] = assay: confluency relative to DMSO, 18 h (ratio); higher = more viable
In short: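 Jurkat cells and primary CD4+/CD8+ T cells, naive or activated with CD3/CD28 Dynabeads for 48 h, were treated with compound (1 nM–10 µM, log10 steps) for 18 h at 37 °C. Following transfer of 100 µl into 96-well plates with IncuCyte Cytotox Dye and alamarBlue, wells were imaged at ×10, five images per well, each hour for 3 h. Confluency, obtained with the IncuCyte Basic Analyzer from phase-contrast images, is normalised to the mean of the control wells.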

Jurkat [2] = assay: metabolic activity relative to DMSO, 18 h (ratio); higher = more viable
In short: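 Jurkat or primary CD4+/CD8+ T cells (naive, or activated 48 h with CD3/CD28 Dynabeads) were treated 18 h with compound at 1 nM–10 µM (log10 steps) at 37 °C, 5% CO2. Then 100 µl of suspension went into 96-well plates with alamarBlue (10% v/v final). After 3.5 h, fluorescence was read on a FluoStar Omega (excitation 544 nm, emission 584 nm). Metabolic activity is normalised to mean DMSO controls.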

Jurkat [3] = assay: cytotoxicity relative to DMSO, 18 h (ratio); higher = less cell death (drugs called cytotoxic fall below 1)
In short: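 Fluorescence was imaged at ×10, five images per well, every hour for 3 h, in 96-well plates holding 100 µl of treated cell suspension and IncuCyte Cytotox Dye at 250 nM final. Before plating, Jurkat cells or primary CD4+/CD8+ T cells (naive, or activated 48 h with CD3/CD28 Dynabeads) had been treated for 18 h with compound across 1 nM–10 µM in log10 steps at 37 °C, 5% CO2. Cytotoxicity values were based on these IncuCyte signals after confluency correction and normalisation to the mean of control wells.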

SMILES | confluency (Jurkat [1]; 1 nM) | confluency (Jurkat [1]; 10 nM) | confluency (Jurkat [1]; 100 nM) | confluency (Jurkat [1]; 1000 nM) | confluency (Jurkat [1]; 10000 nM) | metabolic activity (Jurkat [2]; 1 nM) | metabolic activity (Jurkat [2]; 10 nM) | metabolic activity (Jurkat [2]; 100 nM) | metabolic activity (Jurkat [2]; 1000 nM) | metabolic activity (Jurkat [2]; 10000 nM) | cytotoxicity (Jurkat [3]; 1 nM) | cytotoxicity (Jurkat [3]; 10 nM) | cytotoxicity (Jurkat [3]; 100 nM) | cytotoxicity (Jurkat [3]; 1000 nM) | cytotoxicity (Jurkat [3]; 10000 nM)
O=C(O)c1ccc(Nc2ncc3c(n2)-c2ccc(Cl)cc2C(c2c(F)cccc2F)=NC3)cc1 [MLN-8054] | 0.953 | 1.06 | 1.03 | 0.879 | 0.791 | 0.971 | 0.993 | 0.955 | 0.913 | 0.558 | 0.913 | 1.02 | 0.967 | 0.812 | 0.623
CN(Cc1cnc2nc(N)nc(N)c2n1)c1ccc(C(=O)NC(CCC(=O)O)C(=O)O)cc1 (stereo not given) [Methotrexate] | 0.943 | 0.828 | 0.619 | 0.576 | 0.603 | 1.12 | 1.08 | 1 | 0.865 | 0.746 | 1.05 | 0.897 | 0.666 | 0.571 | 0.585
CNC(=O)c1nn(C)c2c1C(C)(C)Cc1cnc(Nc3ccc(N4CCN(C)CC4)cc3)nc1-2 [Milciclib] | 1.01 | 0.985 | 1.01 | 0.969 | 1.01 | 1.05 | 0.965 | 0.953 | 0.684 | 0.809 | 0.986 | 0.958 | 0.956 | 0.794 | 0.897
Nc1ccccc1NC(=O)c1ccc(CNc2nccc(-c3cccnc3)n2)cc1 [Mocetinostat] | 1 | 1.02 | 1 | 0.76 | 0.886 | 0.892 | 0.841 | 0.822 | 0.747 | 0.3 | 0.997 | 1.01 | 0.975 | 0.726 | 0.636
CCNC(=O)CC1N=C(c2ccc(Cl)cc2)c2cc(OC)ccc2-n2c(C)nnc21 (stereo not given) [Molibresib] | 1.02 | 1.03 | 1.03 | 1 | 0.879 | 0.916 | 1.06 | 1.18 | 0.878 | 0.887 | 0.992 | 1 | 1.07 | 0.955 | 0.848
O=C1C=CC(=O)C2=C1C1c3ccccc3C2c2ccccc21 [NFAT activation inhibitor III] | 1 | 0.877 | 0.804 | 0.97 | 0.864 | 1.04 | 1.04 | 1.12 | 1.01 | 0.834 | 0.945 | 0.784 | 0.732 | 1.04 | 0.839
CCCCN(Cc1ccc(C(=O)NO)cc1)C(=O)Nc1ccccc1 [Nexturastat A] | 0.989 | 0.978 | 0.98 | 0.935 | 0.989 | 1.05 | 1.15 | 1.1 | 1.02 | 0.66 | 1.05 | 1.15 | 1.07 | 0.955 | 0.92
